Assay results from patent US20190201541A1, “ANTI-CD22 ANTIBODY-MAYTANSINE CONJUGATES, COMBINATIONS, AND METHODS OF USE THEREOF” (Triphase Accelerator U.S. Corporation, priority 2017, published 2019).

What was measured:
Type in all cases: cell-based
[1] = system: Ramos cells engineered to express MDR1 (MDR1+); assay: In vitro cytotoxicity assay on MDR1-expressing cells; conditions: versus wild-type cells
Protocol: (§1) MDR1 (ABCB1) cDNA was obtained from Sino Biological and cloned into a pEF plasmid with a hygromycin selection marker. An AMAXA Nucleofector™ instrument was used to electroporate Ramos (ATCC CRL-1923) and WSU-DLCL2 (DSMZ ACC 575) cells according to the manufacturer's instructions. After selection with hygromycin (Invitrogen 10687010), the pools were enriched with paclitaxel treatment (25 nM for up to 10 days) to further select cells with functional MDR1. The resulting cells were maintained under hygromycin selection in RPMI (Gibco 21870-092) supplemented with 10% fetal bovine serum (FBS) and 1× GlutaMax (Gibco 35050-079).
(§2) Cell lines were plated in 96-well plates (Costar 3610) at a density of 5×10^4 cells/well in 100 μL of growth media and allowed to rest for 5 h. Serial dilution of test samples was performed in RPMI at 6× the final concentration and 20 μL was added to the cells. After incubation at 37° C. with 5% CO2 for 5 days, viability was measured using a Promega CellTiter 96® AQueous One Solution Cell Proliferation Assay (G3581) according to the manufacturer's instructions. GI50 curves were calculated in GraphPad Prism using the ADC's drug-to-antibody ratio (DAR) value to normalize the dose to the payload concentration.

[2] = system: WSU-DLCL2 cells engineered to express MDR1 (MDR1+); assay: as above
Protocol: as §1, §2

Ramos cells = assay: In vitro cytotoxicity, Cell Titer-Glo, 5 d; conditions: Homo sapiens, 120 h, 5 d incubation, read-out: IC50 against Ramos cells
Protocol: (§3) The CD22-positive B-cell lymphoma cell lines, Ramos and WSU-DLCL2, were obtained from the ATCC and DSMZ cell banks, respectively. The cells were maintained in RPMI-1640 medium (Cellgro, Manassas, Va.) supplemented with 10% fetal bovine serum (Invitrogen, Grand Island, N.Y.) and Glutamax (Invitrogen). 24 h prior to plating, cells were passaged to ensure log-phase growth. On the day of plating, 5000 cells/well were seeded onto 96-well plates in 90 μL normal growth medium supplemented with […] and 10 µg/mL streptomycin (Cellgro). Cells were treated at various concentrations with 10 μL of diluted analytes, and the plates were incubated at 37° C. in an atmosphere of 5% CO2. After 5 d, 100 μL/well of Cell Titer-Glo reagent (Promega, Madison, Wis.) was added, and luminescence was measured using a Molecular Devices SpectraMax M5 plate reader. GraphPad Prism software was used for data analysis.

WSU-DLCL2 cells = assay: In vitro cytotoxicity, Cell Titer-Glo, 5 d; conditions: Homo sapiens, WSUDLCL2, 120 h; 5 d incubation; read-out: IC50 against WSU-DLCL2 cells
Protocol: as §3

COc1cc2cc(c1Cl)N(C)C(=O)C[C@H](OC(=O)[C@H](C)N(C)C(C)=O)[C@]1(C)O[C@H]1[C@H](C)[C@@H]1C[C@@](O)(NC(=O)O1)[C@H](OC)/C=C/C=C(\C)C2 [free maytansine, maytansine]
loss of efficacy in MDR1+ Ramos cells [1]: ~10 fold | potency in MDR1+ WSU-DLCL2 cells on cotreatment with cyclosporin (MDR1 inhibitor) ([2]; cyclosporin cotreatment): restored the original potency | loss of efficacy in MDR1+ WSU-DLCL2 cells ([2]; versus wild-type cells): ~10 fold | IC50 (Ramos cells): 0.04 nM | IC50 (WSU-DLCL2 cells): 0.086 nM
